Assay results as given in patent US7098039B1, “Analysis of a sample to determine its characteristic cycle time” (The Victoria University of Manchester, priority 1998, dated 2006).
Read-outs that look alike come from different tables or passages of the source.

Tested on: peptide sequence VCDWWGWGIC (mimic of the binding of drugs by the drug efflux protein P-glycoprotein)
Assay: Quenching of the natural tryptophan fluorescence of peptide […] on drug binding (FIG. 7h titration)
Conditions: for relative intensity of the peak at 359.25 nm, indicating the degree of quenching: peptide 49.1 μM, 0.1 M Tris pH 7.5
Description: The system illustrated in FIG. 7 may be a drug binding to a protein or peptide comprising fluorescent amino acids at the site of binding.
The number in brackets, following each titration, is the relative intensity of the peak at 359.25 nm, indicating the degree of quenching.

[1] = peptide VCDWWGWGIC, linear sequence or cyclised, result in words

**Q.** `CN1C(=O)CN=C(c2ccccc2)c2cc(Cl)ccc21` [Diazepam] was tested. Which “natural tryptophan fluorescence of the peptide quenched by the drug” value (“natural tryptophan fluorescence” for short) did it give?
**A.** Its value is “quenched”.

**Q.** With `C[C@H]1O[C@@H](O[C@H]2[C@@H](O)C[C@H](O[C@H]3[C@@H](O)C[C@H](O[C@H]4CC[C@@]5(C)[C@H](CC[C@@H]6[C@@H]5C[C@@H](O)[C@]5(C)[C@@H](C7=CC(=O)OC7)CC[C@]65O)C4)O[C@@H]3C)O[C@@H]2C)C[C@H](O)[C@@H]1O` [Digoxin] as the compound, how does the “natural tryptophan fluorescence” value [1] read?
**A.** Its value is “quenched”.

**Q.** What does the source list for `COc1cccc2c1C(=O)c1c(O)c3c(c(O)c1C2=O)C[C@@](O)(C(=O)CO)C[C@@H]3O[C@H]1C[C@H](N)[C@H](O)[C@H](C)O1` [Doxorubicin]?
**A.** natural tryptophan fluorescence of the peptide quenched by the drug [1]: quenched; relative intensity of the peak at 359.25 nm, indicating the degree of quenching (peptide:doxorubicin 1:0.1, 2.9 ml, without doxorubicin normalised at 999.99): 917.99; relative intensity of the peak at 359.25 nm, indicating the degree of quenching (peptide:doxorubicin 1:0.2, without doxorubicin 999.99): 835.53; relative intensity of the peak at 359.25 nm, indicating the degree of quenching (peptide:doxorubicin 1:0.3, without doxorubicin 999.99): 769.34; relative intensity of the peak at 359.25 nm, indicating the degree of quenching (peptide:doxorubicin 1:0.4, without doxorubicin 999.99): 704.25; relative intensity of the peak at 359.25 nm, indicating the degree of quenching (peptide:doxorubicin 1:0.5, without doxorubicin 999.99): 633.91; relative intensity of the peak at 359.25 nm, indicating the degree of quenching (peptide:doxorubicin 1:0.6, without doxorubicin 999.99): 594.31; relative intensity of the peak at 359.25 nm, indicating the degree of quenching (peptide:doxorubicin 1:0.7, without doxorubicin 999.99): 547.73; relative intensity of the peak at 359.25 nm, indicating the degree of quenching (peptide:doxorubicin 1:0.8, without doxorubicin 999.99): 498.54; relative intensity of the peak at 359.25 nm, indicating the degree of quenching (peptide:doxorubicin 1:0.9, without doxorubicin 999.99): 457.70; relative intensity of the peak at 359.25 nm, indicating the degree of quenching (peptide:doxorubicin 1:1, without doxorubicin 999.99): 415.96; relative intensity of the peak at 359.25 nm, indicating the degree of quenching (peptide:doxorubicin 1:1.1, without doxorubicin 999.99): 390.24

**Q.** `CC[C@H]1OC(=O)[C@H](C)[C@@H](O[C@H]2C[C@@](C)(OC)[C@@H](O)[C@H](C)O2)[C@H](C)[C@@H](O[C@@H]2O[C@H](C)C[C@H](N(C)C)[C@H]2O)[C@](C)(O)C[C@@H](C)C(=O)[C@H](C)[C@@H](O)[C@]1(C)O` [Erythromycin] was tested. Which “natural tryptophan fluorescence” value [1] did it give?
**A.** Its value is “quenched”.

**Q.** Which “natural tryptophan fluorescence” value (peptide […], linear sequence or cyclised, result in words) does the source give for `O=c1c(-c2ccc(O)cc2)coc2cc(O)cc(O)c12` [Genistein] here?
**A.** The value was “quenched”.

**Q.** Which “natural tryptophan fluorescence” value [1] does the source give for `N[C@@H](Cc1ccc(N(CCCl)CCCl)cc1)C(=O)O` [Melphalan] here?
**A.** The value was “quenched”.

**Q.** With `CO[C@@H]1[C@@H](OC(N)=O)[C@@H](O)[C@H](Oc2ccc3c(O)c(NC(=O)c4ccc(O)c(CC=C(C)C)c4)c(=O)oc3c2C)OC1(C)C` [Novobiocin] as the compound, how does the “natural tryptophan fluorescence” value [1] read?
**A.** The value was “quenched”.

**Q.** With `COC(=O)[C@H]1[C@H]2C[C@@H]3c4[nH]c5cc(OC)ccc5c4CCN3C[C@H]2C[C@@H](OC(=O)c2cc(OC)c(OC)c(OC)c2)[C@@H]1OC` [Reserpine] as the compound, how does the “natural tryptophan fluorescence” value [1] read?
**A.** Its value is “quenched”.

**Q.** With `CC[C@]1(O)C[C@@H]2CN(CCc3c([nH]c4ccccc34)[C@@](C(=O)OC)(c3cc4c(cc3OC)N(C)[C@H]3[C@@](O)(C(=O)OC)[C@H](OC(C)=O)[C@]5(CC)C=CCN6CC[C@]43[C@@H]65)C2)C1` [Vinblastine] as the compound, how does the “natural tryptophan fluorescence” value [1] read?
**A.** The value was “quenched”.

**Q.** For Cyclosporin A, which “natural tryptophan fluorescence” value [1] is on record?
**A.** The value was “quenched”.
